SMILES strings stand for the structures. ± gives the standard deviation of the averaged measurements.

Results on 6 compounds are retold here after the supplement of paper PMC5579334.

In experiment [1] the test system is HS-Sch-2. Nature of the experiment: drug sensitivity score (DSS, CellTiter-Glo viability, 72 h) (DSS (dimensionless)); higher = more sensitive; extreme values may be limits of the assay. The essentials: (§1)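 After seeding 750–1000 cells per well of MPNST cell lines or primary human Schwann cells into 384-well plates preprinted with each compound at five concentrations in 10-fold steps, plates were kept 72 h at 37 °C, 5% CO2. Viability was read as CellTiter-Glo ATP luminescence relative to vehicle and positive-control wells, with duplicates averaged where present. The data were fitted with four-parameter logistic models. Drug sensitivity score and relative IC50, censored at the top concentration, derive from the fits, and percent inhibition refers to the top concentration.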
(In general: In ATP-based viability assays light output follows the ATP content of the culture.)

The subject of experiment [2] is ST8814. The experiment is described as above. In a few lines:
as §1

The subject of experiment [3] is S462. Described as above. The essentials:
as §1

Experiment [4] deals with YST-1. The description is as above. In a few lines: as §1
For experiment [5], the system named is HSC1 (primary human Schwann cells). The description is as above. The essentials: as §1
Experiment [6] concerns HS-PSS. Described as above. In a few lines:
as §1

Experiment [7] relates to HSC2 (primary human Schwann cells). Described as above. In a few lines: as §1
In experiment [8] the test system is S1507-2. The experiment is described as above. The essentials: as §1
Experiment [9] relates to STS26T. The description is as above. In a few lines: as §1
Experiment [10] deals with ST8814. Nature of the experiment: drug sensitivity score (DSS, CellTox-Green cytotoxicity, 72 h) (DSS (dimensionless)); higher = more cytotoxic; extreme values may be limits of the assay. In a few lines: (§2)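 For 72 h at 37 °C, MPNST cell lines and primary human Schwann cells were exposed in 384-well plates to five 10-fold compound dilutions. CellTox-Green, added before seeding at a final 1:1000 dilution, gave fluorescence from DNA released by disrupted cells. Signals were scaled to vehicle and positive-control wells, cultures failing plate quality control were left out, and four-parameter logistic fits were applied. Relative IC50 and drug sensitivity score were derived from the fits, with IC50 censored at the top concentration.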

The test system of experiment [11] is HSC1 (primary human Schwann cells). The experiment is described as above. In a few lines:
as §2

For experiment [12], the system named is HS-PSS. The experiment is described as above. In a few lines: as §2
The subject of experiment [13] is HSC2 (primary human Schwann cells). The description is as above. In a few lines:
as §2

Experiment [14] concerns S1507-2. The description is as above. In a few lines: as §2
For experiment [15], the system named is STS26T. The experiment is described as above. In a few lines: as §2
Experiment [16] concerns HS-Sch-2. The experiment is described as follows: % inhibition of CellTiter-Glo viability at highest tested concentration (72 h), relative to DMSO and benzethonium chloride controls; higher = more inhibition. In a few lines: as §1
For experiment [17], the system named is ST8814. Described as above. The essentials: as §1
Experiment [18] relates to S462. The experiment is described as above. The essentials: as §1
Experiment [19] concerns YST-1. The description is as above. In a few lines:
as §1

For experiment [20], the system named is HSC1 (primary human Schwann cells). Described as above. In a few lines:
as §1

Experiment [21] deals with HS-PSS. The experiment is described as above. The essentials: as §1
In experiment [22] the test system is HSC2 (primary human Schwann cells). Described as above. In a few lines:
as §1

The test system of experiment [23] is S1507-2. Described as above. In a few lines: as §1
Experiment [24] has as its system STS26T. The description is as above. The essentials: as §1

A word on the % inhibition: it is the change of the read-out against control, counted positive when it falls. In the case of `CC(C)(C)c1cc(NC(=O)Nc2ccc(-c3cn4c(n3)sc3cc(OCCN5CCOCC5)ccc34)cc2)no1` [Quizartinib] (max concentration tested 1000 nM), the drug sensitivity score in experiment [1] was determined as 0.1; in [2] it was 2.56; in experiment [3], 4.8 ± 1.2; in experiment [4], 7.45; in [5], 3.73; in experiment [6] it was 0. The drug sensitivity score in experiment [7] worked out at 1.32; in [8] it was 1.94 ± 0.75; in [9] it was 1.24; in [10] it was 0; in experiment [11], 0; in experiment [12] it was 0. In addition, the drug sensitivity score in experiment [13], in experiment [14] and in experiment [15] was 0 throughout. Also, the “% inhibition” value in [16] was 14.4%; in experiment [17], 15.8%; in experiment [18] it was 64.2 ± 37%; in [19] it was 78.7%; in [20], 47.8%; in [21], -10.7%. The entries for the “% inhibition” value in experiment [22], in experiment [23] and in experiment [24] were 36.6%, 21.3 ± 1.4% and 15.3%, respectively.

Take `COc1cccc2c1C(=O)c1c(O)c3c(c(O)c1C2=O)C[C@@](O)(C(C)=O)C[C@@H]3O[C@H]1C[C@H](N)[C@H](O)[C@H](C)O1` [Daunorubicin] (max concentration tested 1000 nM): the drug sensitivity score in [1] turned out to be 10.6; in experiment [2] it was 9.95; in [3], 14.9 ± 0.27; in [4], 17.9; in experiment [5] it was 10.4; in experiment [6], 9.45. Moreover, the drug sensitivity score is 12.7 in experiment [7]; 9.24 ± 0.51 in [8]; 12.9 in experiment [9]; 1.13 in experiment [10]; 2.35 in [11]; 0 in [12]. The drug sensitivity score in experiment [13] was determined as 3.16; in experiment [14], 0; in experiment [15] it was 3.13. The “% inhibition” value came out at 102% in [16]; 88.3% in experiment [17]; 98.64 ± 0.44% in experiment [18]; 101% in [19]; 99.9% in [20]; 88.2% in experiment [21]. Moreover, the figures for the “% inhibition” value in [22], in experiment [23] and in experiment [24] were 101%, 96.11 ± 0.088% and 98.5%, respectively.

Consider `O=C1NC(=O)[C@@H](c2cn3c4c(cccc24)CCC3)[C@@H]1c1c[nH]c2ccccc12` [Tivantinib] (max concentration tested 1000 nM), for which the drug sensitivity score in experiment [1] worked out at 6; in experiment [2] it was 5; in experiment [3], 5.15 ± 0.31; in [4], 6.48; in experiment [5], 3.89; in experiment [6], 2.27. Also, the drug sensitivity score was determined as 4.03 in [7]; 5.33 ± 1.5 in experiment [8]; 6.92 in experiment [9]; 4.59 in experiment [10]; 1.43 in experiment [11]; 0.01 in experiment [12]. Further, the figures for the drug sensitivity score in experiment [13], in experiment [14] and in experiment [15] were 2.53, 4.49 ± 1.2 and 7.73, respectively. In addition, the “% inhibition” value amounted to 82.9% in experiment [16]; 93% in experiment [17]; 98.43 ± 0.21% in experiment [18]; 78.2% in experiment [19]; 62.9% in [20]; 36.1% in experiment [21]. The “% inhibition” value in experiment [22] came to 60.3%; in experiment [23], 80 ± 5.9%; in experiment [24], 98.2%.

Regarding `S=P(N1CC1)(N1CC1)N1CC1` [Thio-TEPA] (max concentration tested 50000 nM), the drug sensitivity score was 0.99 in experiment [1]; 0.888 in [2]; 0 in experiment [3]; 0 in experiment [4]; 0 in experiment [5]; 0 in experiment [6]. The drug sensitivity score in experiment [7] amounted to 0; in [8] it was 0; in [9], 0.888; in experiment [10], 0; in experiment [11], 0.888; in [12], 0. Besides, the drug sensitivity score is 0 in [13], 0.0053 ± 0.0075 in experiment [14] and 0 in experiment [15]. Further, the “% inhibition” value is 9.72% in experiment [16]; -6.39% in experiment [17]; -14.47 ± 0.14% in experiment [18]; 9.03% in experiment [19]; 2.2% in experiment [20]; 3.83% in experiment [21]. Further, the “% inhibition” value in experiment [22] was 1.51%; in experiment [23], -14.5 ± 2.9%; in experiment [24] it was -2.04%.

For `CNC(=O)c1cc(Oc2ccc(NC(=O)Nc3cc(C(C)(C)C)nn3-c3ccc4ncccc4c3)c(F)c2)ccn1` [Rebastinib] (max concentration tested 1000 nM), the drug sensitivity score in experiment [1], in experiment [2], in experiment [3], in experiment [4], in experiment [5] and in [6] was 0 in each case. The drug sensitivity score in experiment [7], in [8], in [9], in experiment [10], in experiment [11] and in experiment [12] was 0 throughout. The drug sensitivity score in experiment [13], in experiment [14] and in experiment [15] was 0 each time. Also, the “% inhibition” value was -12.3% in experiment [16]; -2.38% in [17]; -0.0982 ± 1.4% in [18]; 0.76% in experiment [19]; 0.317% in experiment [20]; -1.59% in [21]. For the same compound, the figures for the “% inhibition” value in experiment [22], in experiment [23] and in experiment [24] were -5.07%, -4.17 ± 6.4% and -1.27%, respectively.

With `COc1cc2c(N3CCN(C(=O)Nc4ccc(OC(C)C)cc4)CC3)ncnc2cc1OCCCN1CCCCC1` [Tandutinib] (max concentration tested 1000 nM), the drug sensitivity score in experiment [1], in [2], in experiment [3], in [4], in [5] and in experiment [6] was 0 throughout. Besides, the drug sensitivity score in experiment [7] was 0; in [8], 0.0556 ± 0.079; in [9], 0; in experiment [10], 0; in experiment [11] it was 0; in experiment [12], 0. Moreover, the drug sensitivity score in experiment [13], in [14] and in experiment [15] was 0 throughout. For the same compound, the “% inhibition” value is -3.01% in experiment [16]; 8.58% in [17]; 0.414 ± 5.6% in experiment [18]; -3.87% in experiment [19]; 2.98% in experiment [20]; 7.75% in experiment [21]. Further, the “% inhibition” value is -9.62% in [22], 9.56 ± 1.9% in experiment [23] and 6.33% in experiment [24].
